The structures appear in SMILES notation.

For one test, the system named is phenformin intoxication. In words: Phenformin intoxication and severe lactate acidemia in mice: survival time, serum lactate, serum pH. In kind it is in vivo, CD-1 mice. The settings on record: doses of Table 4, vs G1 saline; for Serum lactate at 1 hour after phenformin intoxication: FIG. 14, combination vs single agent; for Serum pH value at 1 hour after phenformin intoxication: FIG. 15. On the procedure:
CD-1 mice (20-25 gram) were used. All mice were pre-treated according to the Table 4.
10 minutes after treatment, intoxication of severe lactate acidemia was induced by injecting phenformin chloride (concentration 20 mg/ml) at dose of 200 mg/kg intraperitoneally. At 1 hour after phenformin injection, serum lactate and pH were measured.

The subject of test [1] is focal cerebral ischemia rat model. Description: Focal cerebral ischemia rat model (3 h MCA occlusion, 21 h reperfusion): behavioral deficit, infarct size, serum lactate, brain ATP. The format is in vivo. To be noted: FIG. 10; 24 hours after ischemia; vs G1 saline; combination vs single agent. The method, then:
180-230 g CD rats were used. Ketamine/xylazine 30 mg/kg ip was given for anesthesia in each rat. A midline incision on the neck was made. The left common carotid artery, the external carotid artery (ECA) and the internal carotid artery (ICA) were exposed. The ECA was ligated and severed. Focal cerebral ischemia was produced by a 3.0 nylon suture that was advanced from the ECA to ICA to block the origin of left middle cerebral artery. The nylon suture was left in place to induce focal cerebral ischemia on left hemisphere supplied by middle cerebral artery. The ischemia lasted for 3 hours, the nylon suture was then removed to allow blood reperfusion for 21 hours.
This treatment time point is one hour before restoring blood flow (reperfusion).
At 24 hours after cerebral ischemia, each rat was evaluated for behavioral deficits. A score of 0-4 was used to assess the motor and behavioral changes. Score 0: No apparent deficits, Score 1: Contralateral forelimb flexion, Score 2: Decreased grip of the contralateral forelimb when the tail is pulled, Score 3: Spontaneous movement in all directions; contralateral circling only if pulled by tail and Score 4: Spontaneous contralateral circling.
At 24 hours after ischemia, blood samples were collected, serum lactate, was measured using blood chemistry analyzer. LDH was measured using colorimetric method.
After blood samples collection, each rat was euthanized. The brain was excised. A small piece of the cortex in ischemic core was obtained, weighed and then homogenized at 0° C. The ATP content was evaluated using ATP content measurement using luciferase-luciferin luminescence detection assay.
Each brain was immediately cut into 6 coronal sections (1 mm in thickness) and stained with 1% 2,3,5-triphenyltetrazolium chloride (TTC) in PBS solution at 37° C. for 10 minutes. The infarct size was identified as the non-TTC-stained area, the infarction percentage (%) was calculated by the ratio of area of infarction size to area of whole brain.

The test system of a further test is cardiac arrest rat model. Description: Cardiac arrest rat model with CPR: mortality, brain death score, serum lactate and pH, organ ATP. In kind it is in vivo. The settings on record: for Serum lactate: FIG. 2, 24 hours after ROSC or right before death, vs G1 saline, combination vs single agent; for Mortality at 24 hours after ROSC: rats, 7 min cardiac arrest, iv treatment 10 minutes after ROSC, doses of Table 1, n=8 each group.

As for `N#Cc1cc(NC(=O)C(=O)O)c(Cl)c(NC(=O)C(=O)O)c1.NC(CO)(CO)CO.NC(CO)(CO)CO` [Lodoxamide tromethamine], the “Serum lactate at 1 hour after phenformin intoxication” value (shortened to “Serum lactate at 1 hour”) with phenformin intoxication is on record as “reduce lactate production”.
Regarding `NC(=O)C(=O)[O-].[Na+]` [Sodium oxamate], the “Serum lactate at 1 hour” value in the test on phenformin intoxication was “reduce lactate production”. For the same molecule, the Serum lactate content entry in test [1] is “reduce lactate production”. Moreover, in the test with cardiac arrest rat model, the Serum lactate entry is “reduce lactate production” and the “Mortality at 24 hours after ROSC” value was 1 out of 8.
`O=C([O-])CC(=O)C(=O)O.[Na+]` [oxaloacetate, Sodium oxaloacetate]: the “Serum lactate at 1 hour” value in the test on phenformin intoxication was “reduce lactate production”. Moreover, the Serum lactate content entry in test [1] is recorded as “reduce lactate production”. Further, the Serum lactate result with cardiac arrest rat model is listed as “reduce lactate production”.
As to `N[C@@H](CCC(=O)[O-])C(=O)[O-].[Na+].[Na+]` [Sodium glutamate], in the test on phenformin intoxication, the “Serum lactate at 1 hour” value is listed as “reduce lactate production” and the “Serum pH value at 1 hour after phenformin intoxication” value is recorded as “particularly effective”. For the same molecule, the Serum lactate content result in test [1] was “reduce lactate production”. Further, in the test on cardiac arrest rat model, the Serum lactate result is reported as “reduce lactate production” and the “Mortality at 24 hours after ROSC” value is recorded as 1 out of 8.
With `Cc1ncc(COP(=O)(O)O)c(C=O)c1O` [PLP, pyridoxal 5′-phosphate], the “Serum lactate at 1 hour” value in the test with phenformin intoxication was “reduce lactate production”. The Serum lactate content result in test [1] is reported as “reduce lactate production”. For the same molecule, the Serum lactate entry in the test with cardiac arrest rat model is listed as “reduce lactate production”.
As for `N[C@@H](CC(=O)[O-])C(=O)[O-].[Na+].[Na+]` [sodium aspartate, Sodium Aspartate], in the test with phenformin intoxication, the “Serum lactate at 1 hour” value was “reduce lactate production” and the “Serum pH value at 1 hour after phenformin intoxication” value is given as “particularly effective”. Moreover, the Serum lactate content entry in test [1] was “reduce lactate production”. The Serum lactate result in the test on cardiac arrest rat model was “reduce lactate production”.
